Data taken from ChEMBL document CHEMBL1130223 (J Med Chem, 1997).
The source made the active and inactive calls. The rule behind the calls is not given here.

Assays:
[1] = biological target: T1, Serotonin 3 (5-HT3) receptor (Rattus norvegicus, UniProt P35563+Q9JJ16); test: Inhibition of [3H]BRL-43694 binding to 5-hydroxytryptamine 3 receptor of rat cortical homogenate.
T1 sequence (P35563 whole entry): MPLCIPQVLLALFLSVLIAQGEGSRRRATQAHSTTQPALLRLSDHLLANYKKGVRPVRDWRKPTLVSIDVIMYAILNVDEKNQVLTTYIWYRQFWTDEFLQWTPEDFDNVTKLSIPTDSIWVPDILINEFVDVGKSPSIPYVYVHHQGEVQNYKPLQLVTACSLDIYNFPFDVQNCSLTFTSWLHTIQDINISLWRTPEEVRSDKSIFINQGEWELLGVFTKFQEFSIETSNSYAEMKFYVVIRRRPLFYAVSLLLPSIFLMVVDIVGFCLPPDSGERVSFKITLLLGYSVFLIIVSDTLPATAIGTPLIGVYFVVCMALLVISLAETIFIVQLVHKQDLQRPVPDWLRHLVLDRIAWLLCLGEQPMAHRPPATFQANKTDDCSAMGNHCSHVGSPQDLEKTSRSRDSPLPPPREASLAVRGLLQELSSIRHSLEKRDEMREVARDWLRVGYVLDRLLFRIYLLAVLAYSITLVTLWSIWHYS
T1 sequence (Q9JJ16 whole entry): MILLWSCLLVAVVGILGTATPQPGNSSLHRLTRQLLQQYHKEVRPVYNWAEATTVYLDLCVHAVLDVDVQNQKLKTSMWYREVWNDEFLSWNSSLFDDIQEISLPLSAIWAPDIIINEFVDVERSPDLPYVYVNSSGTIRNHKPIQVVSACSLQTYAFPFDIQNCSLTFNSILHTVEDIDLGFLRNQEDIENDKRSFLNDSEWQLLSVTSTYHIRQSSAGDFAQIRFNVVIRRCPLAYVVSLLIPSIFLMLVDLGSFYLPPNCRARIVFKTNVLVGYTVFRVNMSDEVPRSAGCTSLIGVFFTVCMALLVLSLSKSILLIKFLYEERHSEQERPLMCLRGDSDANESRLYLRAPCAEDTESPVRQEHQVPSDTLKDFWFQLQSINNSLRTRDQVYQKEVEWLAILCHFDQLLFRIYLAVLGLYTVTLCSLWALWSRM

[2] = biological target: T1, Serotonin 3 (5-HT3) receptor; test: Inhibition of radiolabeled [3H]-Zacopride ligand binding to 5-hydroxytryptamine 3 receptor; format: protein-complex assay
NG108-15 [3] = test: Effective concentration for uptake of [14C]guanidinium on NG108-15 cells; format: functional, cell-based; conditions: Murinae
NG108-15 [4] = test: Agonist/antagonist activity by observing the uptake of [14C]guanidinium, on the neuroblastoma-glioma hybrid NG108-15 cells; pure agonist; format: functional, cell-based; conditions: filed as agonist
[5] = biological target: T2, Serotonin 3 (5-HT3) receptor (Rattus norvegicus) (UniProt P35563+Q9JJ16); test: The stimulation of cardiac 5-HT3 receptors evaluated by using von Bezold-Jarisch reflex test in urethane-anesthetized rats; Partial agonist; format: functional; conditions: filed as partial agonist
[6] = biological target: T2, Serotonin 3 (5-HT3) receptor (Rattus norvegicus); test: Dose required to stimulate cardiac 5-HT3 receptors evaluated by using von Bezold-Jarisch reflex test in urethane-anesthetized rats after intravenous administration; format: functional, organism-based
[7] = biological target: T3, 5-hydroxytryptamine receptor 1A (Rattus norvegicus, UniProt P19327); test: Inhibition of radiolabeled [3H]-8-OH-DPAT ligand binding to 5-hydroxytryptamine 1A receptor
T3 sequence (P19327 whole entry): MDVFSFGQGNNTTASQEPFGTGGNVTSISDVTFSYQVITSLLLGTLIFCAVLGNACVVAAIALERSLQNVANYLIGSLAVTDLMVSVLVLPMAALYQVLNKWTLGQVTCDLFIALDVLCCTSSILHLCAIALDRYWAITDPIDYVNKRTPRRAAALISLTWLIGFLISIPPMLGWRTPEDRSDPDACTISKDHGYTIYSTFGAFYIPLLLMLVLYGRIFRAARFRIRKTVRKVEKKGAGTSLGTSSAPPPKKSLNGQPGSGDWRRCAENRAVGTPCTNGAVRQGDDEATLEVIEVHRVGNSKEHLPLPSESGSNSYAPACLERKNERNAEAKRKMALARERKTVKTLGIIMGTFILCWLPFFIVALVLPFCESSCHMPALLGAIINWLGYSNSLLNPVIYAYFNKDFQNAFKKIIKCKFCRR

[8] = biological target: 5-hydroxytryptamine receptor 1B (Rattus norvegicus, UniProt P28564); test: Inhibition of radiolabeled [3H]-5-HT ligand binding to 5-hydroxytryptamine 1B receptor
5-hydroxytryptamine receptor 1B, sequence (P28564 whole entry): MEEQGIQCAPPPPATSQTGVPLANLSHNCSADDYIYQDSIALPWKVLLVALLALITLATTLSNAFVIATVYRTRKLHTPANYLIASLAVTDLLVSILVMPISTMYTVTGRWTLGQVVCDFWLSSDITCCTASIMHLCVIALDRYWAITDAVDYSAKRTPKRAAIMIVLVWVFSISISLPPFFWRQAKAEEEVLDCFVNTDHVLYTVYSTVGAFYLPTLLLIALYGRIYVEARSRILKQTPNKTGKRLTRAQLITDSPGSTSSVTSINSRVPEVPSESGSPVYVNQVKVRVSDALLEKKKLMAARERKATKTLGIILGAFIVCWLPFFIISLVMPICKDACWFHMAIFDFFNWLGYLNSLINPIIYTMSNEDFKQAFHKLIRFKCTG

[9] = biological target: 5-hydroxytryptamine receptor 2A (Rattus norvegicus, UniProt P14842); test: Inhibition of radiolabeled [3H]-Ketanserin ligand binding to 5-hydroxytryptamine 2A receptor
5-hydroxytryptamine receptor 2A, sequence (P14842 whole entry): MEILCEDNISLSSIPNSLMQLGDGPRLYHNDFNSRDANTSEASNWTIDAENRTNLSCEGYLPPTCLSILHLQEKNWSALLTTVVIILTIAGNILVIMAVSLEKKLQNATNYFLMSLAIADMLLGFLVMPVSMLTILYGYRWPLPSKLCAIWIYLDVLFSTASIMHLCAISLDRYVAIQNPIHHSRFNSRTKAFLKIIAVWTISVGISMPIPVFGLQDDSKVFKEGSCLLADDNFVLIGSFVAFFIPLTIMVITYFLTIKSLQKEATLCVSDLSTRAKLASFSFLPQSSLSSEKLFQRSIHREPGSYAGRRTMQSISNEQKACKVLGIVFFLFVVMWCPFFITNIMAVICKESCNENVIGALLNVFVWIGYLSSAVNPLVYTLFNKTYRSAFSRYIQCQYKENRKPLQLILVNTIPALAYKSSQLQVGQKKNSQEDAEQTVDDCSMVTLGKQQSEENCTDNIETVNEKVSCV

[10] = biological target: T4, 5-hydroxytryptamine receptor 2C (Rattus norvegicus, UniProt P08909); test: Inhibition of radiolabeled [3H]mesulergine ligand binding to 5-hydroxytryptamine 2C receptor
T4 sequence (P08909 whole entry): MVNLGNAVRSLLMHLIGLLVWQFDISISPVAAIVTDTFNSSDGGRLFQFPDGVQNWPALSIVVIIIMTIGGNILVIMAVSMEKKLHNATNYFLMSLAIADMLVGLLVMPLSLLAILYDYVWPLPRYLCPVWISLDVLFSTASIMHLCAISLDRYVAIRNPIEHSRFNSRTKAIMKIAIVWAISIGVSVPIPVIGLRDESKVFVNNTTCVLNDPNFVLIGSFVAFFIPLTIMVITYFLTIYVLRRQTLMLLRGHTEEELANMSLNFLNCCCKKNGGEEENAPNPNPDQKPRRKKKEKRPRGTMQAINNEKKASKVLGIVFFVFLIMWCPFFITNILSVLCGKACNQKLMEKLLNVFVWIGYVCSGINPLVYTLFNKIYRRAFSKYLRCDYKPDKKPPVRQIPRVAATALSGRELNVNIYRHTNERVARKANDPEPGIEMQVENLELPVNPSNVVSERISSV

[11] = biological target: 5-hydroxytryptamine receptor 4 (Rattus norvegicus, UniProt Q62758); test: Inhibition of radiolabeled [3H]GR-113808 ligand binding to 5-hydroxytryptamine 4 receptor
5-hydroxytryptamine receptor 4, sequence (Q62758 whole entry): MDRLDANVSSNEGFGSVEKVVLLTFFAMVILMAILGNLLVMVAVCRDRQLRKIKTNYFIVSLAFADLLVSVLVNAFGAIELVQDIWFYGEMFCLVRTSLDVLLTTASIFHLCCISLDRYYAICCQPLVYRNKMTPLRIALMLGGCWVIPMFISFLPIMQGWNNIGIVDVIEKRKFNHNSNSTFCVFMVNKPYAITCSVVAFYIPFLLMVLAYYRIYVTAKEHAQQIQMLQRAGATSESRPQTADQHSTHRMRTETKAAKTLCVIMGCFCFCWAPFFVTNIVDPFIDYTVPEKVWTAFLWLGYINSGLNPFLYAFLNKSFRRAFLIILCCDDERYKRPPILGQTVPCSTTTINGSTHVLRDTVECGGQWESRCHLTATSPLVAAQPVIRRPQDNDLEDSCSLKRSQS

[12] = biological target: T2, Serotonin 3 (5-HT3) receptor (Rattus norvegicus); test: The stimulation of cardiac 5-HT3 receptors evaluated by using von Bezold-Jarisch reflex test in urethane-anesthetized rats; pure antagonist; format: functional; conditions: filed as antagonist
Rattus norvegicus = species on record: Rattus norvegicus; test: Inhibitory activity for 5-HT uptake was determined using [3H]- Citalopram; format: functional
[13] = Potency to cross blood-brain barrier was assessed; format: functional
[14] = biological target: T2, Serotonin 3 (5-HT3) receptor (Rattus norvegicus); test: The stimulation of cardiac 5-HT3 receptors evaluated by using von Bezold-Jarisch reflex test in urethane-anesthetized rats; partial agonist; format: functional; conditions: filed as partial agonist
[15] = biological target: T1, Serotonin 3 (5-HT3) receptor; test: Inhibition of [3H]BRL-43694 binding to 5-hydroxytryptamine 3 receptor of rat cortical homogenate; Not active at 10000 nm
NG108-15 [16] = test: Agonist/antagonist activity by observing the uptake of [14C]guanidinium, on the neuroblastoma-glioma hybrid NG108-15 cells; Not active at 10000 nm; format: functional, cell-based
[17] = biological target: T2, Serotonin 3 (5-HT3) receptor (Rattus norvegicus); test: The stimulation of cardiac 5-HT3 receptors evaluated by using von Bezold-Jarisch reflex test in urethane-anesthetized rats; pure agonist; format: functional; conditions: filed as agonist
[18] = biological target: T2, Serotonin 3 (5-HT3) receptor (Rattus norvegicus); test: Dose required to stimulate cardiac 5-HT3 receptors evaluated by using von Bezold-Jarisch reflex test in urethane-anesthetized rats; format: functional
[19] = biological target: T2, Serotonin 3 (5-HT3) receptor (Rattus norvegicus); test: The stimulation of cardiac 5-HT3 receptors evaluated by using von Bezold-Jarisch reflex test inurethane-anesthetized rats; Pure Antagonist; format: functional; conditions: filed as antagonist
[20] = biological target: T4, 5-hydroxytryptamine receptor 2C; test: Inhibition of radiolabeled [3H]-Ketanserin ligand binding to 5-hydroxytryptamine 2C receptor

Compound | IC50 [1] [nM] | EC50 (NG108-15 [3]) [nM] | Efficacy (NG108-15 [4]) | ID50 [6] [mg/kg] | IC50 (Rattus norvegicus) [nM] | further results
Cc1[nH]c2ccc(O)cc2c1CCN | 779 | – | – | – | – | –
CN1C[C@@H](NS(=O)(=O)N(C)C)C[C@@H]2c3cccc4c3c(cn4C)C[C@H]21 [MESULERGINE] | – | – | – | – | – | IC50 [2]: 2.13 nM
CN1CCN(c2nc3cccc(F)c3n3cccc23)CC1 | 0.44 | 6.5 | Agonist | 0.12 | – | Behavior [5]: Partial agonist
Fc1ccc2c(c1)nc(N1CCNCC1)c1cccn12 | 5.4 | 3.5 | Agonist | 0.01 | 203 | IC50 [7]: 151 nM; IC50 [8]: 167 nM; IC50 [9]: 489 nM; IC50 [10]: 2800 nM; IC50 [11]: > 10000 nM; Behavior [12]: Antagonist; Ratio [13]: 37.5
C=CCN1CCN(c2nc3cc(F)ccc3n3cccc23)CC1 | 22 | 76 | Agonist | 0.1 | – | Behavior [14]: Partial agonist
c1ccc2nc(N3CCNCC3)ccc2c1 [QUIPAZINE] | 6.2 | 25 | Agonist | – | 204 | IC50 [8]: 380 nM; IC50 [9]: 1400 nM; IC50 [10]: 470 nM; IC50 [11]: > 10000 nM
CCN1CCN(c2nc3ccccc3n3cccc23)CC1 | 9 | 8 | Agonist | 0.1 | – | Behavior [12]: Antagonist
Fc1cccc2nc(N3CCNCC3)c3cccn3c12 | 3.9 | 98 | Agonist | 0.07 | 1130 | IC50 [7]: 268 nM; IC50 [8]: 106 nM; IC50 [9]: 761 nM; IC50 [10]: 784 nM; IC50 [11]: > 10000 nM; Behavior [12]: Antagonist
CN1CCN(c2nc3ccccc3n3cccc23)CC1 | – | 10 | Agonist | – | 214 | IC50 [7]: 89 nM; IC50 [8]: 232 nM; IC50 [9]: 43 nM; IC50 [10]: 780 nM; IC50 [11]: > 10000 nM
CN1CCN(c2nc3c(F)cccc3n3cccc23)CC1 | 9.5 | 4.7 | Agonist | 0.12 | – | Behavior [5]: Partial agonist
NCCc1c[nH]c2ccc(O)cc12 [SEROTONIN] | – | – | – | – | 369 | –
CN1CCN(c2nc3cc(C(F)(F)F)ccc3n3cccc23)CC1 | – | – | – | – | – | IC50 [15]: Not Active; Efficacy (NG108-15 [16]): inactive
CN1CCN(c2cnc3ccccc3n2)CC1 | 22 | 510 | Agonist | 0.06 | – | Behavior [17]: Agonist
CCCN1CCN(c2nc3cc(F)ccc3n3cccc23)CC1 | 88 | 580 | Agonist | 0.2 | – | Behavior [14]: Partial agonist
CN1CCN(c2nc3cc(F)ccc3n3cccc23)CC1 | 0.81 | 3 | Agonist | – | 232 | IC50 [7]: 138 nM; IC50 [8]: 371 nM; IC50 [9]: 124 nM; IC50 [10]: 413 nM; IC50 [11]: > 10000 nM; ID50 [18]: 0.6 mg/kg; Ratio [13]: 17.5; Behavior [19]: Antagonist
C=CCN1CCN(c2nc3cccc(F)c3n3cccc23)CC1 | 28 | 30 | Agonist | 0.075 | – | Behavior [5]: Partial agonist
C=CCN1CCN(c2nc3ccccc3n3cccc23)CC1 | 11 | 8.2 | Agonist | 0.18 | – | Behavior [14]: Partial agonist
CCCN1CCN(c2nc3cccc(F)c3n3cccc23)CC1 | 82 | 73 | Agonist | 0.3 | – | Behavior [5]: Partial agonist
CCC(CC)NC(=O)[C@@H]1C=C2c3cccc4c3c(cn4C)C[C@H]2N(C)C1 [METHSERGIDE] | – | – | – | – | – | IC50 [20]: 3.1 nM
CCCN1CCN(c2nc3ccccc3n3cccc23)CC1 | 51 | 8.5 | Agonist | 0.24 | – | Behavior [5]: Partial agonist
